The values that follow come from ChEMBL document CHEMBL1147682, “New 4-(4-methyl-phenyl)phthalazin-1(2H)-one derivatives and their effects on alpha1-receptors” (Bioorg Med Chem Lett, 2006).

Format in all cases: tissue-based
For assay [1], the target named is T1, Adrenergic receptor alpha-1 (Rattus norvegicus, UniProt P15823+P23944+P43140).
T1 sequence (P15823 whole entry): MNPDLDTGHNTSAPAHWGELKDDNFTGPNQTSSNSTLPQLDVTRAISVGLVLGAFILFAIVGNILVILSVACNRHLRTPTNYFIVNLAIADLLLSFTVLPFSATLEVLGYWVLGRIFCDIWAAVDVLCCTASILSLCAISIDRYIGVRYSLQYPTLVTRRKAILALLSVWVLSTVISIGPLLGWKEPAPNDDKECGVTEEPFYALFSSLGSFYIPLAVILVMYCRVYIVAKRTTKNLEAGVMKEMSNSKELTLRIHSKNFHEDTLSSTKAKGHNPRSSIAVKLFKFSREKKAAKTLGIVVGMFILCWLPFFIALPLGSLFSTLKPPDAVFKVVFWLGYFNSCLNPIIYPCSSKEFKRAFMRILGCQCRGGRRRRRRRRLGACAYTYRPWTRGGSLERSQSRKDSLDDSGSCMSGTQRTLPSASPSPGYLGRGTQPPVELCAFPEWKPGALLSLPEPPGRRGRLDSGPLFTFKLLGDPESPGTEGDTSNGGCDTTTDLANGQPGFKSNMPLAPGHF
T1 sequence (P23944 whole entry): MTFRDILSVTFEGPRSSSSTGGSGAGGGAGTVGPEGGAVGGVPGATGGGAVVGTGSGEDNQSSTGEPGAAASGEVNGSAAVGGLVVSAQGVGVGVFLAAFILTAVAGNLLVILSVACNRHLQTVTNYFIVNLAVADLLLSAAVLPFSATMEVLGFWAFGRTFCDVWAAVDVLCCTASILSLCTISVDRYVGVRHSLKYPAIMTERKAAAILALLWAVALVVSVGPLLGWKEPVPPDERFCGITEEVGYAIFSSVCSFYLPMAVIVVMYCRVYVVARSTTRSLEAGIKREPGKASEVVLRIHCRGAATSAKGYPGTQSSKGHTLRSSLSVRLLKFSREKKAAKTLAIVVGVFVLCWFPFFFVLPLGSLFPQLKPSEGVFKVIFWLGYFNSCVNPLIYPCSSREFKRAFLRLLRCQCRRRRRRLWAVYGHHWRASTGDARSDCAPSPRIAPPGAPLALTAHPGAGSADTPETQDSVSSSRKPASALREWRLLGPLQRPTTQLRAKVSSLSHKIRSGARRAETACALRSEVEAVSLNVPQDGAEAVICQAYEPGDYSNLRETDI
T1 sequence (P43140 whole entry): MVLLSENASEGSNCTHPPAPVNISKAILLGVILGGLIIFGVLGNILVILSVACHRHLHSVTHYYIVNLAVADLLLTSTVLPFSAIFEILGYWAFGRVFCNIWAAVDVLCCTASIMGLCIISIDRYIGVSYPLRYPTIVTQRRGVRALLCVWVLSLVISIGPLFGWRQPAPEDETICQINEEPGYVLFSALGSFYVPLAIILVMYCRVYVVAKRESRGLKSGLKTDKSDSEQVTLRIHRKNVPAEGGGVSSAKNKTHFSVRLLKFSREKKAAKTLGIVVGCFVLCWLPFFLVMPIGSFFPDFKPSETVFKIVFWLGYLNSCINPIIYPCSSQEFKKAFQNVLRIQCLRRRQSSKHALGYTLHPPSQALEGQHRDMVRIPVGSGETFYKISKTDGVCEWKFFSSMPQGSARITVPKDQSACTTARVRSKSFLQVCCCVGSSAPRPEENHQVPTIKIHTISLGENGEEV
Description: Displacement of [3H]prazosin from alpha-1 adrenergic receptor in rat cerebral cortex. For orientation: Loss of bound radioactivity is the signal in a displacement assay; it reports binding, not function.

Assay [2] concerns the target T2, Serotonin 1a (5-HT1a) receptor/Adrenergic receptor alpha-1 (Rattus norvegicus) (UniProt P15823+P23944+P43140+P19327). Kind of assay: Selectivity for alpha-1 adrenergic receptor over 5HT1A serotonergic receptor in rat cerebral cortex.
The target of assay [3] is T3, 5-hydroxytryptamine receptor 1A (Rattus norvegicus, UniProt P19327).
T3 sequence (P19327 whole entry): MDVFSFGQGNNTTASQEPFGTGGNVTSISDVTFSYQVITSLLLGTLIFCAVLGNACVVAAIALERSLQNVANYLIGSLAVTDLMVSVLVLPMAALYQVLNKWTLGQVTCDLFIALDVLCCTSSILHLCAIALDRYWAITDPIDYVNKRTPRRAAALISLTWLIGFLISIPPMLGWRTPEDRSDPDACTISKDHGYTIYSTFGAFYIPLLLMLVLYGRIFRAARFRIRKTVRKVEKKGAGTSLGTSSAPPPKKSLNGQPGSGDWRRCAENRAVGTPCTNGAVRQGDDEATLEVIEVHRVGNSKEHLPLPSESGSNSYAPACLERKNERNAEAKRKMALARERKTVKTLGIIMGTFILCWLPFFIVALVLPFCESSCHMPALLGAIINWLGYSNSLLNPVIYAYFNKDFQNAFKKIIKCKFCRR
Kind of assay: Displacement of [3H]8-OH-DPAT from 5HT1A serotonergic receptor in rat cerebral cortex.

Assay [4] deals with T4, Adrenergic receptor alpha-2 (Rattus norvegicus, UniProt P22086+P19328+P22909).
T4 sequence (P22086 whole entry): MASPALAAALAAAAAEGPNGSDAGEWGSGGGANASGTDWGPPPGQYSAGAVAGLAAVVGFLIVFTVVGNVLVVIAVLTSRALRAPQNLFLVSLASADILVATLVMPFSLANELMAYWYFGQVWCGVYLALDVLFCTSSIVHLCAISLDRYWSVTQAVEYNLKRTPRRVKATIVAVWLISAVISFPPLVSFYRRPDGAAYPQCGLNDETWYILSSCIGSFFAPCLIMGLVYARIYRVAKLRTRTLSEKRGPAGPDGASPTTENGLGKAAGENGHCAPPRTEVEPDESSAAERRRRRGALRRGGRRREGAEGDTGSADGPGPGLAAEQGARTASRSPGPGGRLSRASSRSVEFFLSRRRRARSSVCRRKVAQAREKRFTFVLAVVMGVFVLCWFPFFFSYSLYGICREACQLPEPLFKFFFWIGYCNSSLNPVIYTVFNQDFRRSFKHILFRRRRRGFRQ
T4 sequence (P19328 whole entry): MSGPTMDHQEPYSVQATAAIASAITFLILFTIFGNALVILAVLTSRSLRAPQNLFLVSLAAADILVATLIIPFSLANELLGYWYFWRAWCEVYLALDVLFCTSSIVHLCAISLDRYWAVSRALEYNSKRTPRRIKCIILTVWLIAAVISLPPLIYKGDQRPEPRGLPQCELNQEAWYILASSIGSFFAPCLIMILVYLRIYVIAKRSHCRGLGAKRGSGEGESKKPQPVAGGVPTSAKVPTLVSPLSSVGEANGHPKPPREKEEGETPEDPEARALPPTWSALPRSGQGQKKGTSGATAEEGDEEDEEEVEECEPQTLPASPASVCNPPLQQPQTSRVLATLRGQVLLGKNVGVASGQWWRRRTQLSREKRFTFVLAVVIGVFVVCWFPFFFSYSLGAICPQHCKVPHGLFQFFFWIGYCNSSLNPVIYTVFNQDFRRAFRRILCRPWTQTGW
T4 sequence (P22909 whole entry): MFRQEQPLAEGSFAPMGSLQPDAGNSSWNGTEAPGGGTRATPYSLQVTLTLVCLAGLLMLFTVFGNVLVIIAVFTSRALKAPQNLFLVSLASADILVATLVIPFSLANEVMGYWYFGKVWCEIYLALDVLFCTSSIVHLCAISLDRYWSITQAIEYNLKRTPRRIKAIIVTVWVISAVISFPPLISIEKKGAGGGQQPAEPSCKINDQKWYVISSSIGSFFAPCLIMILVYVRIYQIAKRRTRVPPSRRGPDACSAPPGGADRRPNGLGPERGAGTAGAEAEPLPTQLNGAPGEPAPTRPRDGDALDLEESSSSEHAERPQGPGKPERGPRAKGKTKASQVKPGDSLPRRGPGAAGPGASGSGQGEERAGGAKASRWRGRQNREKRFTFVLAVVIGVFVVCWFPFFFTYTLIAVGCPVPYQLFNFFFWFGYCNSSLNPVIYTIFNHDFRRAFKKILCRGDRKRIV
Kind of assay: Displacement of [3H]rauwolscine from alpha-2 adrenergic receptor in rat cerebral cortex.

The target of assay [5] is T5, 5-hydroxytryptamine receptor 1A (Rattus norvegicus) (UniProt P19327).
T5 sequence (whole entry): T3 sequence (P19327 whole entry)
Description: Displacement of [3H]8-OH-DPAT from 5HT1A serotonergic receptor in rat cerebral cortex at 10 uM.

The target in assay [6] is Adrenergic receptor alpha-1 (Rattus norvegicus) (UniProt P15823+P23944+P43140). Description: Displacement of [3H]prazosin from alpha-1 adrenergic receptor in rat cerebral cortex at 10 uM.
Assay [7] deals with Adrenergic receptor alpha-2 (Rattus norvegicus) (UniProt P22086+P19328+P22909). Kind of assay: Displacement of [3H]rauwolscine from alpha-2 adrenergic receptor in rat cerebral cortex at 10 uM.
Assay [8] deals with T2, Serotonin 1a (5-HT1a) receptor/Adrenergic receptor alpha-1 (Rattus norvegicus). Description: Selectivity for 5HT1A serotonergic receptor over alpha1 adrenergic receptor in rat cerebral cortex.

As usually defined, the Ki is a measure of affinity in units of concentration, obtained from inhibition or displacement. Low readings indicate a stronger hold on the target, high ones a looser hold on the target. One may read the inhibition as the drop in the measured response relative to a control, in per cent. A higher inhibition goes with strong suppression.

Each structure is given as a SMILES string.

In the case of `COc1ccccc1N1CCN(CCCCCCCn2nc(-c3ccc(C)cc3)c3ccccc3c2=O)CC1`, the Ki in assay [1] stood at 8.4 nM; in assay [3], 101 nM; in assay [4], 105 nM. The Ratio Ki in assay [2] was 12.

Regarding `Cc1ccc(-c2nn(CCN3CCN(c4ccccc4OC(C)C)CC3)c(=O)c3ccccc23)cc1`, the Ki in assay [1] amounted to 5 nM; in assay [3], 1290 nM; in assay [4], 1301 nM. In assay [2], the Ratio Ki is 258.

As to `Cc1ccc(-c2nn(CCCCCCCN3CCN(c4cccc(Cl)c4)CC3)c(=O)c3ccccc23)cc1`, the Ki in assay [1] is 37 nM; in assay [3], 673 nM; in assay [4] it was 430 nM. Besides, in assay [2], the Ratio Ki worked out at 18.2.

Consider `Cc1ccc(-c2nn(CCCCN3CCN(c4ccccc4OC(C)C)CC3)c(=O)c3ccccc23)cc1`, for which the Ki stood at 1.07 nM in assay [1], 81 nM in assay [3] and 96 nM in assay [4]. For the same molecule, the Ratio Ki in assay [2] amounted to 75.7.

As for `CCOc1ccccc1N1CCN(CCCCCCCn2nc(-c3ccc(C)cc3)c3ccccc3c2=O)CC1`, the figures for the Ki in assay [1], in assay [3] and in assay [4] were 7.33 nM, 207 nM and 889 nM, respectively. Besides, the Ratio Ki in assay [2] is 28.2.

`COc1ccccc1N1CCN(CCCCn2nc(-c3ccc(C)cc3)c3ccccc3c2=O)CC1`: the Ki in assay [1] worked out at 2.6 nM; in assay [3] it was 38.5 nM; in assay [4] it was 60.37 nM. The Ratio Ki in assay [2] worked out at 14.8.

Take `CCOc1ccccc1N1CCN(CCn2nc(-c3ccc(C)cc3)c3ccccc3c2=O)CC1`: the Ki in assay [1] was found to be 3.9 nM; in assay [3] it was 951 nM; in assay [4] it was 867 nM. The Ratio Ki in assay [2] worked out at 244.

For the molecule `Cc1ccc(-c2nn(CCCCCCCN3CCN(c4cccc(C(F)(F)F)c4)CC3)c(=O)c3ccccc23)cc1`, the Ki in assay [1] came out at 382 nM; in assay [3] it was 722 nM; in assay [4], 4180 nM. For the same molecule, the Ratio Ki in assay [2] was found to be 1.9.

As to `Cc1ccc(-c2nn(CCCCCCCn3ncc4ccccc4c3=O)c(=O)c3ccccc23)cc1`, the inhibition in assay [5] came out at 10%; in assay [6], 26%; in assay [7] it was 15%.

Take `Cc1ccc(-c2nn(CCCCN3CCN(CC4COc5ccccc5O4)CC3)c(=O)c3ccccc23)cc1` (configuration not stated): the results for the Ki in assay [1], in assay [3] and in assay [4] were 180 nM, 1930 nM and 278 nM, respectively. In addition, the Ratio Ki in assay [2] was 10.7.

Turning to `COc1ccccc1N1CCN(CCn2nc(-c3ccc(C)cc3)c3ccccc3c2=O)CC1`, the results for the Ki in assay [1], in assay [3] and in assay [4] were 3.5 nM, 473 nM and 578 nM, respectively. Moreover, the Ratio Ki in assay [2] was 135.

For `Cc1ccc(-c2nn(CCCCN3CCN(c4cccc(C(F)(F)F)c4)CC3)c(=O)c3ccccc23)cc1`, the Ki came out at 111.6 nM in assay [1], 71.8 nM in assay [3] and 186.5 nM in assay [4]. In assay [8], the Ratio Ki stood at 1.5.

Turning to `CCOc1ccccc1N1CCN(CCCCn2nc(-c3ccc(C)cc3)c3ccccc3c2=O)CC1`, the Ki in assay [1] was found to be 2.23 nM; in assay [3], 41 nM; in assay [4], 60.47 nM. In addition, in assay [2], the Ratio Ki came to 18.3.

For `Cc1ccc(-c2nn(CCCCN3CCN(c4ccccc4)CC3)c(=O)c3ccccc23)cc1`, the Ki in assay [1] worked out at 23.9 nM; in assay [3], 450 nM; in assay [4], 186 nM. For the same molecule, in assay [2], the Ratio Ki came out at 18.8.

As to `Cc1ccc(-c2nn(CCN3CCN(c4ccccc4)CC3)c(=O)c3ccccc23)cc1`, the Ki was 25.3 nM in assay [1], 6200 nM in assay [3] and 4262 nM in assay [4]. For the same molecule, in assay [2], the Ratio Ki worked out at 245.

For the molecule `Cc1ccc(-c2nn(CCCCN3CCN(c4cccc(Cl)c4)CC3)c(=O)c3ccccc23)cc1`, the Ki in assay [1] stood at 12.4 nM; in assay [3], 116 nM; in assay [4], 178.2 nM. For the same molecule, the Ratio Ki in assay [2] came to 9.3.

With `Cc1ccc(-c2nn(CCCCN3CCN(c4ncccn4)CC3)c(=O)c3ccccc23)cc1`, the Ki in assay [1] amounted to 270 nM; in assay [3] it was 1180 nM; in assay [4], 2034 nM. Further, the Ratio Ki in assay [2] came out at 4.4.
